Earlier results in US9012511B2, “Nanoparticulate cinacalcet compositions” (Alkermes Pharma Ireland Limited, priority 2010, dated 2015).
Read-outs that look alike come from different tables or passages of the source.

Columns and labels:
[1] = fasted subjects; estimated

mean tmax (fasting subjects): 6 h
mean tmax (high-fat fed subjects): 4 h
mean tmax (low-fat fed subjects): 3.5 h
difference in mean AUC∞ between high- and low-fat meals (single oral dose 90 mg): 12 (9.9-26) %
mean (90% confidence intervals) AUC[infinity] increase relative to fasting (single oral dose 90 mg, high-fat, high-caloric meal): 68 (48 to 89) %
mean (90% confidence intervals) AUC[infinity] increase relative to fasting (single oral dose 90 mg, low-fat, low-caloric meal): 50 (33 to 70) %
absolute bioavailability [1]: 20-25%
Structure (SMILES): C[C@@H](NCCCc1cccc(C(F)(F)F)c1)c1cccc2ccccc12.Cl [Cinacalcet HCl, Cinacalcet hydrochloride]
